“Also recorded” adds a separate entry of the source.

One assay concerns NOD.scid recipients. The assay can be described thus: Adoptive co-transfer of diabetes to NOD.scid recipients with spleen cells from WE14-immunized NOD mice. The format is in vivo. The following applies: 1×10^7 WE14 SC co-transferred i.v. with 1×10^7 diabetic NOD spleen cells. The procedure: In another experiment, NOD mice (3-4 wks old) were immunized with WE14+IFA and 13 days later, single cell suspensions of the spleens (WE14 SC) were prepared. WE14 SC (1×10^7) were co-transferred with spleen cells obtained from a diabetic NOD mouse (1×10^7) into adult NOD.scid recipients by Intravenous (i.v.) injection. Urine glucose was monitored daily following cell transfer and hyperglycemia was confirmed by blood glucose readings.

The test system of the next assay is CD4+ and CD8+ T cells. The experiment in a line: Immunization of NOD mice with WE14; intracellular IFNγ of pLN and spleen T cells by flow cytometry. The format is in vivo. The following applies: WE14 100 mg + IFA i.p. day 0, boost day 30; pLN and spleen at seven weeks. The procedure: In another experiment, NOD mice (3-4 wks old) were immunized intraperitoneally (i.p.) with WE14 (100 mg+IFA) at day 0 and boosted with the same dose of peptide 30 days later. Seven weeks after the initial immunization, pancreatic lymph nodes (pLN) and spleen were harvested and single cell suspensions of these organs were made. The cells were stimulated with anti-CD3 ([…]) and anti-CD28 (2 mg/ml) for 48 hr. PMA/ionomycin and Golgiplug were added for an additional 4 hr. Cells were harvested and analyzed for intracellular IFNγ production by flow cytometry. […] See, FIG. 17.
A general note: In flow cytometry, cells or beads pass a laser one at a time.

A further assay deals with soluble IA^g7. The experiment in a line: Peptide binding to IA^g7: competition with biotinylated HEL peptide. Also noted: species or system NOD mouse. The conditions noted are these: competition with biotinylated pHEL 11 μM, pH 5.6, overnight. From the text:
FIG. 15B: A series of ChgA peptides tested for their ability to compete with a biotinylated HEL peptide for binding to soluble IA^g7. pS3-positive control peptide. IE^k moth cytochrome c-negative control peptide. N=2. Y axis: Percent of IA^g7-bound biotinylated HEL peptide as compared to IE^k. X axis: Log concentration of inhibitor peptide.
In order to confirm the unique binding register of the WE14 peptide, a series of peptides comprising N-terminal extensions and/or C-terminal deletions of WE14 were evaluated for their ability to stimulate the BDC-2.5 T cell clone (FIG. 6a) or to bind to IA^g7. See, FIG. 15A. […] See, FIG. 15B. Further, a pS3 mimotope was used as the positive control peptide and an irrelevant peptide from moth cytochrome c, pMCC, was the negative control peptide. The data were analyzed to determine the stimulatory or binding capacity of the peptides relative to WE14. See, FIG. 15C.
Soluble IA^g7 with covalently attached pHEL was treated with thrombin to cleave the linker attaching the peptide to the IA^g7 β chain. Kozono et al., “Production of soluble MHC class II proteins with covalently bound single peptides” Nature 369:151-154 (1994). Samples (0.5 μg) were incubated with a soluble biotinylated version of pHEL, Biotin-GGGMKRHGLDNYRGYSL (SEQ ID NO: 56) (11 μM), either alone or in the presence of various concentrations of potential competitors peptides, in 15 μL of pH 5.6 buffer overnight at room temperature. The sample was diluted to 100 μL of PBS in a well of a 96-well ELISA plate coated with an anti-IA^g7 monoclonal antibody, OX-6 (BD Pharmaceuticals). The captured IA^g7 was washed several times with PBS and the bound bio-pHEL detected with alkaline phosphatase coupled Extravadin (Sigma) and […].

For the next assay, the system named is diabetogenic T cells. The experiment in a line: Immunization of BDC-2.5 TCR-Tg NOD mice with WE14; spleen cell IFNγ ELISA. The format is in vivo. The conditions noted are these: WE14 50 mg in CFA day 0, boost in IFA day 7; spleen cells day 14, WE14 100 mg or 200 mg as antigen. The procedure:
In one experiment, BDC-2.5 TCR-Tg NOD mice were immunized with WE14 ([…]) in complete Freund's adjuvant (CFA) at day 0 and boosted with WE14 in incomplete Freund's adjuvant (IFA) at day 7. Spleen cells were harvested 14 days after the initial immunization and assayed by ELISA with WE14 (100 mg or 200 mg) as antigen. […] See, FIG. 16.
Background: An ELISA detects its analyte on a solid surface through an enzyme-linked reagent.

The test system of the next assay is T cell clone BDC-2.5. The assay can be described thus: IFNγ production by T cell clone in antigen assay (ELISA). The format is cell-based, NOD mouse. The conditions noted are these: for Stimulation of T cell clone BDC-2.5 (IFNγ response), result in words: peptide or preparation as antigen. From the text:
(§1) The T cell clones are maintained in culture by periodic re-stimulation with irradiated NOD splenocytes and islet cells or β-membrane. To assay for antigen, resting responder T cells (i.e., for example, the cells at the end of the two-week restimulation period) are co-cultured for 24 hr with elicited peritoneal macrophages (PEC) as APC and either a test sample or control antigen. Control antigen will be in the form of islet cells or the whole-cell membrane fraction (i.e., for example, a β-membrane fraction). As described above, unlysed β-membrane is stored in aliquots at −80° C. for this purpose. Negative controls include responder cells alone and responders plus APC.
(§2) At the end of the culture period, supernatants are collected from the cultures and IFNγ production is measured by ELISA. Wells positive for IFNγ are indicative of T cells responding to antigen; the amount of cytokine produced is calculated from a standard curve and is directly proportional to the amount of antigen present.
(§3) Antigenicity of islet cells, cellular and biochemical fractions, peptides, or insect cells expressing IA^g7-peptide constructs, was assessed through responses of T cell clones or hybridomas made by fusing T cell clones to the TCR^− version of T cell lymphoma, BW5147. White et al., “Two better cell lines for making hybridomas expressing specific T cell receptors” J Immunol 143:1822-1825 (1989). T cell clone cultures typically contained 2×10^4 responder T cells, 2.5×10^4 NOD peritoneal exudate cells (PEC) as APC, and antigen (SEC/IEX fractions, peptides, islet cells); all assays were performed with β-Mem as a positive control. IFNγ was measured by ELISA of culture supernatants. For cultures with T cell hybridomas, antigen/MHC activation was assessed by IL-2 production measured by a bioassay using the HT-2 T cell line. Walker et al., “Antigenspecific. I region-restricted interactions in vitro between tumor cell lines and T cell hybridomas” J Immunol 128:2164-2169 (1982). Synthetic peptides were either produced in the Molecular Resource Center at National Jewish Health or obtained from CHI Scientific, Maynard, Mass.

A further assay relates to T cell clone BDC-10.1. Described as above. The format is cell-based, NOD mouse. The conditions noted are these: for Stimulation of T cell clone BDC-10.1 (IFNγ response), result in words: peptide or preparation as antigen.
From the text: as §1, §2, §3

The subject of a further assay is T cell clone BDC-5.10.3. The assay is described as above. The assay is classed as cell-based, NOD mouse. The following applies: for Stimulation of T cell clone BDC-5.10.3 (IFNγ response), result in words: peptide or preparation as antigen.
From the text: as §1, §2, §3

As for “WSRMDQLAKELTAE (listed as Mus musculus) [WE14, natural cleavage product of ChgA, aa 359-372]”, the “Onset of disease induced by diabetic NOD spleen cells” value with NOD.scid recipients is given as “considerably delayed”. Moreover, the “Inflammatory response (intracellular IFNγ) of CD4+ and CD8+ T cells in lymphoid organs” value with CD4+ and CD8+ T cells is reported as “suppress”. The “IA^g7 binding, result in words” value with soluble IA^g7 is listed as “can bind”. The “IFNγ response of the diabetogenic T cells after immunization” value in the assay on diabetogenic T cells is recorded as “considerably reduced”. Besides, the “Antigen response as percentage of maximal IFN-γ response [% Max]” value with T cell clone BDC-2.5 (100 mg/ml peptide, 100 mg/ml β-membrane = 100%) was ~15%. Moreover, the “Potency in activating the BDC clones, fold less potent than the pS3 mimotope” value in the assay with T cell clone BDC-2.5 (BDC-2.5, synthetic peptide) is “at least 1000 fold”; with T cell clone BDC-10.1 (BDC-10.1, synthetic peptide), “at least 1000 fold”; with T cell clone BDC-5.10.3 (BDC-5.10.3, synthetic peptide), “at least 1000 fold”. For the same sequence, the “Stimulation of T cell clone BDC-2.5 (IFNγ response), result in words” value in the assay with T cell clone BDC-2.5 is listed as “weak stimulator; also recorded: weakly stimulated; also recorded: considerably less potent; also recorded: only very weakly”; with T cell clone BDC-2.5 (listed as WE-14), “stimulated”. Also, the “Stimulation of T cell clone BDC-10.1 (IFNγ response), result in words” value is given as “stimulated; also recorded: considerably less potent” with T cell clone BDC-10.1 and “stimulated” in the assay with T cell clone BDC-10.1 (listed as WE-14). Moreover, the “Stimulation of T cell clone BDC-5.10.3 (IFNγ response), result in words” value in the assay with T cell clone BDC-5.10.3 is reported as “stimulated; also recorded: considerably less potent”; in the assay on T cell clone BDC-5.10.3 (listed as WE-14), “stimulated”.

The values are drawn from patent publication US20120128646A1, “METHODS AND COMPOSITIONS FOR THE TREATMENT OF AUTOIMMUNE DISEASE” (priority 2009, published 2012).
